# Assay results as given in patent US20030157084A1, “Methods for preparing purified prostaglandin E synthase” (priority 2001, published 2003).
# Where two headings read alike, the source gives them in different places.
# T1: purified His6-hPGES (Homo sapiens, UniProt O14684)
# T1 sequence (O14684 1-152): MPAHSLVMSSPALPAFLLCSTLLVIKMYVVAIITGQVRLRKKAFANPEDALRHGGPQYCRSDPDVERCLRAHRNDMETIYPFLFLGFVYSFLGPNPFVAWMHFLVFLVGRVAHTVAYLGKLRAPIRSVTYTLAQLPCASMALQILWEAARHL
# B1: His6-hPGES: full length human PGES fused at its N-terminus to six histidine residues (SEQ ID NO: 4), expressed in E. coli (protein)
# chain: MHHHHHHMPAHSLVMSSPALPAFLLCSTLLVIKMYVVAIITGQVRLRKKAFANPEDALRHGGPQYCRSDPDVERCLRAHRNDMETIYPFLFLGFVYSFLGPNPFVAWMHFLVFLVGRVAHTVAYLGKLRAPIRSVTYTLAQLPCASMALQILWEAARHL
# Assays:
# purified His6-hPGES [1] = molecular target: T1, purified His6-hPGES; assay: Isomerization of PGG2 into 15-hydroperoxy-PGE2 by purified His6-hPGES; type: biochemical; set-up: made in house; host or cells: E. coli BL21(DE3) with pLysSL
# Method: PGG2 was prepared similarly to PGE2 (described above), omitting the L-tryptophan. The reaction was terminated by lowering the pH to 3 by adding 6 μl HCl (1M). Then, 45 μl acetonitrile was added and centrifugation was performed at 14,000 g, for 1 minute to remove the protein. […] In order to determine the formation of PGE2 and 15-Hydroperoxy PGE2, an aliquot (100 μl) was analyzed by RP-HPLC, combined with UV detection at 195 nm. The products were quantified based on the peak areas from known amounts of injected prostaglandins.
# purified His6-hPGES [2] = molecular target: T1, purified His6-hPGES; assay: PGES activity assay: glutathione dependent conversion of PGH2 to PGE2 by purified His6-hPGES; type: biochemical; set-up: made in house; host or cells: E. coli BL21(DE3) with pLysSL; details: sulfhydryl compound in place of GSH
# purified His6-hPGES [3] = molecular target: T1, purified His6-hPGES; assay: as above; type: biochemical; set-up: made in house; host or cells: E. coli BL21(DE3) with pLysSL; details: for Specific activity: at Vmax
# Method: PGE synthase activity of the purified polypeptide, i.e., the ability to catalyze the conversion of a substrate of PGES into a 9-keto, 11-alpha-hydroxy form, e.g., PGH2 into PGE2 can be determined as follows. […] The polypeptide suspected of having PGES activity is incubated in a buffer, e.g., a sodium phosphate buffer in the presence of about 1 to 5 mM, preferably, 2.5 mM glutathione (GSH). The reaction is started by the addition of PGH2 at about 5 to 20 μM, and preferably 10 uM, and the reaction mixture is then incubated either at 37° C., at room temperature, or preferably, at 0° C., for about one to ten minutes, and preferably, for about one minute. The reaction can be terminated by the addition of a solution reducing the pH to about 3 or 3.2. This can be achieved by the addition of acetonitrile/HCl (as described in Jakobsson et al. (1999) PNAS 96:7220) or by the addition of FeCl2, citric acid, and/or 11-beta PGE2, as described in the Examples. The formation of PGF2 alpha, PGE2 and PGD2 can be determined by reverse-phase high pressure liquid chromatograph (HPLC) and UV detection at 195 nm. For subjecting the proteins to HPLC, the reaction mixtures can be subjected to solid phase extraction, e.g., using C18 Chomabond columns; the samples eluted with acetone, dried and dissolved in acetonitrile. The samples are then ready for HPLC. More details of these methods are provided in the Examples, as well as in Jakobssen et al., supra, and in published PCT application No. WO 00/28022 by Jakobsson et al.
# (§1) PGES activity was assayed in 50 mM sodium phosphate buffer, pH 7.4, in the presence of 2.5 mM reduced glutathione (GSH; obtained from Sigma Chemical Co. (St. Louis, Mo.) and either zero; 0.2; 0.4 or 0.6 mg/ml of purified hPGES. The reaction was started by the addition of 10 μM PGH2, and the samples were incubated for 1 minute at 0° C. until terminated by 20 mM FeCl2, 40 mM citric acid and 2.1 μM 11-β. PGE2, lowering the pH to 3. PGH2 was prepared by brief incubation of arachidonic acid with suspensions of the microsomal fraction of homogenate of the sheep vesicular gland essentially as described in Hamberg et al. (1974) PNAS 71:345 or Hecker et al. (1987) Biochem. Pharmacol. 36:851. L-tryptophan (5 mM) was used as electron donor. Purification was accomplished by straight-phase HPLC using a solvent system of 2.5% 2-propanol-hexane containing 0.002% acetic acid. Solid phase extraction using C18 Chromabond columns was performed immediately. The samples were eluted with acetone, dried and dissolved in acetonitrile (⅓ by vol. in H2O) and the formation of PGE2 was analyzed by reverse-phase HPLC on a C18 (3.9×150 mm, 4 μM particle size) column and UV detection at 195 nm.
# (§2) The remaining protein was divided in two parts, one was stored at 4° C. for 5 days, and one was frozen and stored at −20° C. for the same time. The PGES activity in the three samples was compared with that in a membrane fraction without solubilization. PGES activity was determined, as described above, for various amounts of protein. The samples were incubated for 1 min on ice or at 37° C. before stopping the reaction. The activity of the purified proteins was compared with the activity in BL21(DE3) membrane fraction without solubilization.
# (§3) All points were made in triplicate. The Michaelis-Menten constants KM and Vmax (maximum velocity) were derived by hyperbolic regression with the computer program GraphPad Prism software 3.0 or 3.02 (GraphPad Software, Inc., San Diego, Calif.).
# purified His6-hPGES [4] = molecular target: T1, purified His6-hPGES; assay: Glutathione transferase (GST) activity of purified His6-hPGES with CDNB; type: biochemical; set-up: made in house; host or cells: E. coli BL21(DE3) with pLysSL; details: pre-incubation with 5 mM N-ethylmaleimid in the absence of GSH for 1 minute
# Method: Glutathione transferase (GST) activity (glutathione conjugation) was assayed with the classical model substrate for GSTs, p-chloro-2,4-dinitrobenzene (CDNB). […] Formation of product was detected at 340 nm (molar absorption coefficient for the product, GS-DNB, is 9.6 mM^−1 cm^−1).
# purified His6-hPGES [5] = molecular target: T1, purified His6-hPGES; assay: Reduction of 15-hydroperoxy-PGE2 (peroxidase activity) by purified his6-hPGES; type: biochemical; set-up: made in house; host or cells: E. coli BL21(DE3) with pLysSL; details: 37 ° C., 0.1 mg/ml enzyme, 0.16 mM 15 hydroperoxy-PGE2
# Method: This is presented in a typical chromatogram (FIG. 12B) as compared to the buffer control (FIG. 12C) after 30 seconds of incubation.
# purified His6-hPGES [6] = molecular target: T1, purified His6-hPGES; details: 37 ° C., 0.05 mg/ml enzyme, 1 mM GSH, 0.5 mM cumene hydroperoxide
# A549 cells = assay: Induction of PGE synthase and cyclooxygenase-2 in A549 cells; type: cell-based; details: IL-1β 1 ng/ml
# Method: Microsomal fractions of A549 cells cultured with or without IL-1 β 1 ng/ml) for 0, 12, 24, 36 or 72 hours were subjected to SDS-PAGE and Western blot analysis. As positive control, the membrane fraction from bacteria expressing human PGE synthase was included. In all lanes of the gel, 10 μg of total protein was analyzed, except for the human PGE synthase where 2 μg was loaded. The Western blot was then incubated with antipeptide antiserum against PGE synthase. The blot was then stripped and incubated with antiserum against COX-2.
# In order to study the possible correlation between the result from the Western blot and PGE synthase activity, the corresponding microsomes were incubated in the presence of PGH2 and reduced glutathione as described above. Briefly, microsomes (0.03 mg/ml) were incubated with PGH2 (11 μM) for 30 seconds at 0° C., followed by extraction and analysis by RP-HPLC. […] In addition, no corresponding activity was detected in the cytosolic fractions.
# [7] = type: physicochemical
# Method: Membrane fractions were solubilized in 50 mM sodium phosphate buffer, pH 8.0, 150 mM NaCl, 4% Triton X-100, 10% glycerol and 1 mM GSH and stored at 4° C. Samples were assayed for PGES activity as described above after 0, 3, 6, 24 and 240 h (10 days) at 4° C.
# as §2
# [8] = Specific activity and kinetic properties of purified His6-hPGES for conversion of PGH2 to PGE2; type: biochemical; details: for Specific activity of the purified His6-hPGES: glutathione dependent conversion of PGH2 to PGE2
# Method: as §1, §2, §3
# [9] = 37° C., steady state, KM values apparent, read-out: KM
molecule,measurement,setting,value
CCCCC[C@@H](/C=C/[C@@H]1[C@@H](C/C=C\CCCC(=O)O)[C@@H]2C[C@H]1OO2)OO [PGG2],kcat,"purified His6-hPGES [1]; 37° C., steady state, PGG2 as substrate",75 ± 4 s⁻¹
same,Km,"purified His6-hPGES [1]; 37° C., steady state, PGG2 as substrate, apparent",160 ± 30 µM
same,Specific activity,"purified His6-hPGES [1]; 37 ° C., substrate PGG2, highest measured specific activity",250 ± 15 µmol/min/mg
OCCS [2-mercaptoethanol],PGES activity when GSH was substituted by other sulfhydryl compounds,purified His6-hPGES [2],no PGES-activity could be detected
"CCCCC[C@H](O)/C=C/[C@@H]1[C@@H](C/C=C\CCCC(=O)O)[C@@H]2C[C@H]1OO2 [PGH2, Prostaglandin endoperoxide H2]",Vmax,"purified His6-hPGES [3]; 0° C., 1 μg/ml purified PGES, 2.5 mM GSH, varying PGH2",0.25 ± 0.013 µM/s
same,Km,"purified His6-hPGES [3]; 0° C., 1 μg/ml purified PGES, 2.5 mM GSH, varying PGH2, read-out: Km for PGH2",50 ± 8.9 µM
same,Vmax,"purified His6-hPGES [3]; 37° C., 1 μg/ml purified PGES, 2.5 mM GSH, varying PGH2",1.39 ± 0.16 µM/s
same,Km,"purified His6-hPGES [3]; 37° C., 1 μg/ml purified PGES, 2.5 mM GSH, varying PGH2, read-out: Km for PGH2",163 ± 42 µM
same,kcat,"purified His6-hPGES [3]; 37° C., steady state",50 ± 6 s⁻¹
same,Km,purified His6-hPGES [3]; [9],160 µM
same,Specific activity,"purified His6-hPGES [3]; substrate PGH2, 0 ° C.",15 µmol/min/mg
same,Specific activity,"purified His6-hPGES [3]; substrate PGH2, 37 ° C.",170 ± 20 µmol/min/mg
CCN1C(=O)C=CC1=O [N-ethylmaleimide],Reduction of GST enzyme activity,purified His6-hPGES [4],50%
same,Reduction of PGES activity,purified His6-hPGES [3]; pre-incubation with 5 mM N-ethylmaleimide in the absence of GSH for 1 minute,~100%
CC(=O)N[C@@H](CS)C(=O)O [N-acetylcysteine],PGES activity when GSH was substituted by other sulfhydryl compounds,purified His6-hPGES [2],no PGES-activity could be detected
"CCCCC[C@@H](/C=C/[C@H]1[C@H](O)CC(=O)[C@@H]1C/C=C\CCCC(=O)O)OO [15-hydroperoxy-PGE2, 15-Hydroperoxy PGE2]",Specific activity (reduction of 15-hydroperoxy-PGE2),purified His6-hPGES [5],0.043 ± 0.019 µmol/min/mg
same,Specific activity (reduction of 15-hydroperoxy-PGE2),purified His6-hPGES [5]; listed as 15-HP PGE2,no peroxidase activity towards this compound was detected
cumene hydroperoxide,Specific activity (GSH-dependent peroxidase),purified His6-hPGES [6],0.17 ± 0.02 µmol/min/mg
same,Specific activity (GSH-dependent peroxidase),purified His6-hPGES [6]; listed as cumene hydroperoxide,0.17 µmol/min/mg
"IL-1β: proinflammatory cytokine interleukin-1β, added to A549 cells at 1 ng/ml",COX-2 and PGE synthase protein expression (Western blot),"A549 cells; microsomal fractions, 0-72 hours",tandem upregulation of COX-2 and PGE synthase proteins
same,PGE synthase activity in microsomes,"A549 cells; up to 72 hours, microsomes 0.03 mg/ml, PGH2 11 μM, 30 seconds at 0° C.",increase over time
"N[C@@H](CCC(=O)N[C@@H](CS)C(=O)NCC(=O)O)C(=O)O [GSH, reduced glutathione]",kcat,"purified His6-hPGES [3]; 37° C., steady state",21 ± 1 s⁻¹
same,Km,purified His6-hPGES [3]; [9],710 ± 200 µM
O[C@H](CS)[C@H](O)CS (racemic) [dithiothreitol],PGES activity when GSH was substituted by other sulfhydryl compounds,purified His6-hPGES [2],no PGES-activity could be detected
B1,Original activity remaining,[7]; 816 h,about 50%
same,PGES activity in BL21 (DE3) membranes,[7]; in the absence of glycerol and GSH,rapidly declines within a period of 24 h
same,PGES activity after heating,[7]; purified enzyme heated at 100° C. for 10 minutes,no PGES-activity could be detected
same,Activity compared to the freshly prepared enzyme,"[7]; purified enzyme, five days of storage at 4° C.",unchanged
same,Loss of activity on storage,"[7]; purified enzyme, up to at least two months at −20° C.",does not seem to result in any loss of activity
same,Specific activity of the purified His6-hPGES,[8]; 0° C.,15 µmol/min/mg
same,Specific activity of the purified His6-hPGES,[8]; 37° C.,167 µmol/min/mg
same,Km,"[8]; Human, recombinant",163 µM
same,Spec. Act.,"[8]; Human, recombinant",167 µmol/min/mg
same,kcat,"[8]; Human, recombinant",50 s⁻¹
